Structures can show the parent of a compound that is named as a salt.
What was measured:
[1] = tested on: male ICR (CD-1) mice; assay: Antagonism test: hypokinesis (suppression of motion) induced by a nociceptin agonist; type: in vivo; details: test compound 1 to 10 mg/kg and nociceptin agonist 1 mg/kg hypodermically; motion for 60 minutes; difference between agonist group and solvent control group set to 100%
Method: Using male ICR (CD-1) mice (weighing 20 to 40 g), antagonism to hypokinesis (suppression of motion) induced by a nociceptin agonist was observed. That is, the quantity of motion of each mouse in a 20 cm×30 cm×20 cm cage was measured with an infrared sensor. The test compound (1 to 10 mg/kg) as dissolved in either 0.5% methyl cellulose liquid or a solvent, and a nociceptin agonist (1 mg/kg) were administered to the test mice hypodermically, and the quantity of their motion for 60 minutes was measured. To the control group mice, the solvent only was administered. The evaluation was made by representing the quantity of motion of the mice administered with the test compound by percent, where the difference in the quantity of motion between the nociceptin agonist-administered group and that of the solvent-administered control group during the test time was set to be 100%.

[2] = biological target: T1, nociceptin receptor ORL1 (Homo sapiens, UniProt P41146); assay: Nociceptin receptor binding inhibition assay ([125I]Tyr14-Nociceptin, CHO/ORL1 membrane fractions, SPA beads); parameters: expressed in transfected cells; membrane fractions
T1 sequence (P41146 whole entry): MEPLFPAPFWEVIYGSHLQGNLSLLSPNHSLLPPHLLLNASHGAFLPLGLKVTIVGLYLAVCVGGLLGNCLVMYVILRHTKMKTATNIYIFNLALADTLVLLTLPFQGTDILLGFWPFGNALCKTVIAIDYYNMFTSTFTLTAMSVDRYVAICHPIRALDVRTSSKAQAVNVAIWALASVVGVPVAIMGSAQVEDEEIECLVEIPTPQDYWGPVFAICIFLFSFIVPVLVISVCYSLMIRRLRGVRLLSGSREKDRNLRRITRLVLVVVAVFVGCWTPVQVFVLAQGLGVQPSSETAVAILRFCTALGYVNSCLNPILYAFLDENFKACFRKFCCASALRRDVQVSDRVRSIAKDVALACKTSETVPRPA
Method: A cDNA that codes for a human nociceptin receptor gene was cloned into an expression vector pCR3 (by Invitrogen) to prepare pCR3/ORL1. Next, pCR3/ORL1 was transfected in CHO cells using a transfectam (by Nippongene) to obtain a stable expression strain (CHO/ORL1 cells) having resistance against 1 mg/ml G418. Membrane fractions were prepared from this stable expression strain to carry out a receptor binding assay. 11 μg of the membrane fraction, 50 pM [^125I]Tyr^14-Nociceptin (by Amersham Pharmacia), 1 mg of wheat germ agglutinin SPA beads (PVT based, by Amersham Pharmacia) and each test compound were suspended in an NC buffer (50 mM Hepes, 10 mM sodium chloride, 1 mM magnesium chloride, 2.5 mM calcium chloride, 0.1% BSA, 0.025% bacitracin, pH 7.4) and incubated at 37° C. for 60 minutes, and then the radioactivity of the culture was determined.

[3] = biological target: T1, nociceptin receptor ORL1; assay: Antagonism against nociceptin-elicited G protein activation (GTPγ[35S] binding, CHO/ORL1 membrane); type: biochemical; parameters: expressed in transfected cells; membrane preparation
Method: CHO cells which stably expressed a nociceptin receptor ORL1 were used to investigate the action of each test compound against nociceptin-elicited G protein activation. A membrane prepared from the CHO/ORL1 cells, 50 nM nociceptin, 200 pM GTPγ[^35S] (by NEN), 1.5 mg of wheat germ agglutinin SPA beads (by Amersham Pharmacia) and each test compound were mixed in a GDP buffer (20 mM Hepes, 100 mM sodium chloride, 10 mM magnesium chloride, 1 mM EDTA, 5 μM GDP, pH 7.4) and incubated at 25° C. for 150 minutes, and then the radioactivity of the culture was determined.

SMILES	Quantity of Motion (%) [1]	IC50 [2]	IC50 [3]	melting point	IC50 ([2]; read-out: IC50 value)
Cc1ccccc1[C@H]1CCN(C[C@@H]2CCc3cccnc3[C@@H](O)C2)C[C@@H]1O.O=C(O)C(O)C(O)C(=O)O (relative stereo) [Example 16, (7R,9S)-7-[(3R*,4R*)-3-hydroxy-4-o-tolyl-piperidin-1-ylmethyl]-6,7,8,9-tetrahydro-5H-cyclohepta[b]pyridin-9-ol mono-L-tartrate]	>75%	–	–	–	–
Cl.O[C@@H]1[C@@H](c2ccc(F)cc2Cl)CC2CC[C@@H]1N2C[C@@H]1Cc2cccnc2[C@@H](O)C1 (relative stereo) [Example 71, (6R,8S)-6-[(1S*,2R*,3R*)-3-(2-chloro-4-fluorophenyl)-2-hydroxy-8-azabicyclo[3.2.1]octan-8-ylmethyl]-5,6,7,8-tetrahydroquinolin-8-ol monohydrochloride]	–	1.4 nM	0.68 nM	238 °C (dec.)	–
O[C@H]1C[C@H](CN2C3CCC2CC2(C3)OCc3cc(F)ncc32)CCc2cccnc21 (stereo partly drawn) [Example 23, (7R,9S)-7-(6′-aza-5′-fluoro-spiro[8-aza-bicyclo[3.2.1]-octa-3,1′(3′H)-isobenzofuran]-8-ylmethyl)-6,7,8,9-tetrahydro-5H-cyclohepta[b]pyridin-9-ol mono-L-tartrate]	–	0.53 nM	1.2 nM	–	–
CC1(C)OC2(CC3CCC(C2)N3C[C@@H]2Cc3cccnc3[C@@H](O)C2)c2cnc(F)cc21 (stereo partly drawn) [Example 70, (6R,8S)-6-[(5′-fluoro-3′,3′-dimethyl-3′H-6′-azaspiro[8-azabicyclo[3.2.1]octane-3,1′-isobenzofuran]-8-yl)methyl]-5,6,7,8-tetrahydroquinolin-8-ol mono-L-tartrate]	–	0.39 nM	0.32 nM	–	–
O[C@H]1C[C@H](CN2C3CCC2CC2(C3)OCc3ccccc32)CCc2cccnc21 (stereo partly drawn) [Example 10, (7R,9S)-7-(spiro[8-aza-bicyclo[3.2.1]octa-3,1′(3′H)-isobenzofuran]-8-ylmethyl)-6,7,8,9-tetrahydro-5H-cyclohepta[b]pyridin-9-ol]	–	0.37 nM	0.08 nM	–	–
Cl.O[C@H]1C[C@H](CN2CC[C@H](c3ccc(F)cc3Cl)[C@@H](O)C2)Cc2cccnc21 [Example 33, (6R,8S)-6-[(3R,4R)-4-(2-chloro-4-fluorophenyl)-3-hydroxypiperidin-1-ylmethyl]-5,6,7,8-tetrahydroquinolin-8-ol monohydrochloride]	>75%	–	–	–	–
O[C@H]1C[C@H](CN2C3CCC2CC2(C3)OCc3cc(F)ncc32)CCc2cccnc21 (stereo partly drawn) (as salt: tartrate) [Example 23, (7R,9S)-7-(6′-aza-5′-fluoro-spiro[8-aza-bicyclo[3.2.1]-octa-3,1′(3′H)-isobenzofuran]-8-ylmethyl)-6,7,8,9-tetrahydro-5H-cyclohepta[b]pyridin-9-ol mono-L-tartrate]	–	–	–	133 to 141 °C	–
Cl.O[C@H]1C[C@H](CN2CC[C@H](c3ccccc3Cl)[C@@H](O)C2)CCc2cccnc21 (relative stereo) [Example 31, (7R,9S)-7-[(3R*,4R*)-4-(2-chlorophenyl)-3-hydroxypiperidin-1-ylmethyl]-6,7,8,9-tetrahydro-5H-cyclohepta[b]pyridin-9-ol monohydrochloride]	>75%	–	2.1 nM	–	6.7 nM
CC1(C)OC2(CCN(C[C@@H]3Cc4cccnc4[C@@H](O)C3)CC2)c2ccccc21.O=C(O)C(O)C(O)C(=O)O [Example 25, (6R,8S)-6-(3,3-dimethyl-spiro[isobenzofuran-1(3H),4′-piperidin]-1′-ylmethyl)-5,6,7,8-tetrahydro-quinolin-8-ol mono-L-tartrate]	>75%	2.5 nM	4.2 nM	–	–
O=C(O)C(O)C(O)C(=O)O.O[C@H]1C[C@H](CN2CCC(F)(c3ccccc3Cl)CC2)Cc2cccnc21 [Example 29, (6R,8S)-6-[4-(2-chlorophenyl)-4-fluoropiperidin-1-ylmethyl]-5,6,7,8-tetrahydroquinolin-8-ol mono-L-tartrate]	>75%	–	4.7 nM	–	4.1 nM
Cc1cc(F)ccc1[C@H]1CCN(C[C@@H]2CCc3cccnc3[C@@H](O)C2)C[C@@H]1O (single isomer, unassigned) [Example 17, (7R,9S)-7-[(3R*,4R*)-(4-fluoro-o-tolyl)-3-hydroxypiperidin-1-ylmethyl]-6,7,8,9-tetrahydro-5H-cyclohepta[b]pyridin-9-ol monohydrochloride]	>75%	–	–	–	–

— patent publication US7855294B2, “Cycloalkanopyridine derivative” (Banyu Pharmaceutical Co., Ltd., priority 2004, dated 2010)
